The results in this text go back to ChEMBL document CHEMBL2034903, “Bis-spirolabdane diterpenoids from Leonotis nepetaefolia” (J Nat Prod, 2012).

Experiment [1] deals with T1, Muscarinic acetylcholine receptor M3 (Homo sapiens, UniProt P20309). In words: Displacement of [3H]QNB from human muscarinic M3 receptor at 10 uM.
Target sequence in this assay (P20309 whole entry, looked up): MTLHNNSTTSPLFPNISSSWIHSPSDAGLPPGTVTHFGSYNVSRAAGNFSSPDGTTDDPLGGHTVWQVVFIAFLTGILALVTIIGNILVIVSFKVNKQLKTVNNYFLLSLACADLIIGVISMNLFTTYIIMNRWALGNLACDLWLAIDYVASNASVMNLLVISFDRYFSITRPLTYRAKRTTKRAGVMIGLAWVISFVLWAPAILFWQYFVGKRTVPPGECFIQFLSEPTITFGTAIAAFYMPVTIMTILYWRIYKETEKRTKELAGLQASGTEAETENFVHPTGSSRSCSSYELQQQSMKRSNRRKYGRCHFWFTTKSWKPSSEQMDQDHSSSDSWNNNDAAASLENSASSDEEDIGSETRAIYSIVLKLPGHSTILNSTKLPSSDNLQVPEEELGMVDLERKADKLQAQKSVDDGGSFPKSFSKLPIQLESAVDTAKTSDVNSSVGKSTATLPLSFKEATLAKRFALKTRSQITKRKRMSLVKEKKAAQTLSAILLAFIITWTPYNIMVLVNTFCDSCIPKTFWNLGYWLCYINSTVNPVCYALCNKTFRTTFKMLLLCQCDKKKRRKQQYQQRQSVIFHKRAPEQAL
The target in experiment [2] is T2, D(1B) dopamine receptor (Homo sapiens, UniProt P21918). Put plainly: Binding affinity to human dopamine D5 receptor.
For experiment [3], the target named is T3, Histamine H2 receptor (Homo sapiens, UniProt P25021). Put plainly: Binding affinity to human histamine H2 receptor.
The target of experiment [4] is T1, Muscarinic acetylcholine receptor M3. Put plainly: Binding affinity to human muscarinic M3 receptor.
Target sequence in this assay (P20309 whole entry): as the sequence (P20309 whole entry, looked up) above
The target of experiment [5] is T3, Histamine H2 receptor. The note with it: 10 uM.
Description: Inhibition of human histamine H2 receptor at 10 uM
For experiment [6], the target named is T2, D(1B) dopamine receptor. Put plainly: Displacement of [3H]SCH23390 from human dopamine D5 receptor at 10 uM.

T3 sequence (P25021 whole entry): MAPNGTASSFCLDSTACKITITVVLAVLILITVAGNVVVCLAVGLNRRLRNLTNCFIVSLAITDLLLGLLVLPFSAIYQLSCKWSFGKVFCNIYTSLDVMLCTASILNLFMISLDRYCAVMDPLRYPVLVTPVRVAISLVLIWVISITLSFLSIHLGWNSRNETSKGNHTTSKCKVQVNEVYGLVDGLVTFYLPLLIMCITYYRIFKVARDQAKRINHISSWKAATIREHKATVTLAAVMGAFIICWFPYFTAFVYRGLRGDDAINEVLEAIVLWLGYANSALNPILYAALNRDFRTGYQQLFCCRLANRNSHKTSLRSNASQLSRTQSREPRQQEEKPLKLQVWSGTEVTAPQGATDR
T2 sequence (P21918 whole entry): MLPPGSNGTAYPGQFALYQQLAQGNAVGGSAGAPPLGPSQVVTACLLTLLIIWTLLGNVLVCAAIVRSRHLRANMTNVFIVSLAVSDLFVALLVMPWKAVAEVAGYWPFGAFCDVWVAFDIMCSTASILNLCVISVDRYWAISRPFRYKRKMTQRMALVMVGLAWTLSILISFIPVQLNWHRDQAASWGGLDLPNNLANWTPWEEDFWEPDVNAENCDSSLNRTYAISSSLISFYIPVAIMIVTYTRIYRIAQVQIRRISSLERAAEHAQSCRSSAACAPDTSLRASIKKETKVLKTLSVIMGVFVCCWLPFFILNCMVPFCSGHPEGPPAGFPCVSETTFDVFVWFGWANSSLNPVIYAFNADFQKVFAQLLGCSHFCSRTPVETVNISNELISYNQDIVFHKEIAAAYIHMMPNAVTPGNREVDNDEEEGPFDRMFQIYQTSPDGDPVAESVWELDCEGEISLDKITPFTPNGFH

`CO[C@H]1C[C@]2(CC[C@@]3(O2)[C@]2(CO2)C[C@@H](OC(C)=O)[C@@H]2[C@]34CCC[C@]2(C)C(=O)OC4)CO1` came in with an inhibition in experiment [1] above 50%.
As to `C[C@@]12CCC[C@]3(C)C(=O)O[C@H](C[C@@]4(CO4)[C@]1(O)CCc1ccoc1)[C@H]23` [LEONOTININ], the Ki in experiment [2], in experiment [3] and in experiment [4] was above 10 µM each time. The compound also gave an inhibition in experiment [5] above 50%.
Turning to `C[C@@]12CCC[C@]3(C)C(=O)O[C@H](C[C@@]4(CO4)[C@]14CC[C@]1(COC(O)C1)O4)[C@H]23` (mixture of isomers), the inhibition in experiment [1] and in experiment [6] was above 50% throughout.
